In paper PMC4230943, “Mimicking Hypoxia to Treat Anemia: HIF-Stabilizer BAY 85-3934 (Molidustat) Stimulates Erythropoietin Production without Hypertensive Effects” (PLoS ONE, 2014):

Columns and labels:
male Wistar rats [1] = assay: Subtotal nephrectomy (remnant kidney) model; assay type: in vivo, rat
Method: In the chronic disease models of subtotal nephrectomy and inflammation, the sodium salt of BAY 85-3934 was used. For administration in drinking water, BAY 85-3934 sodium and enalapril were prepared as 100 mM sodium bicarbonate saline solutions (adjusted to pH 7) at final concentrations of 80 ppm and 30 ppm, respectively. Sham and vehicle control animals received saline only. Unless otherwise stated, chemicals and reagents were purchased from Sigma-Aldrich.
Subtotal nephrectomy was conducted in adult male Wistar rats. Body weight, blood pressure, hematocrit, and blood cell counts were determined at baseline and thereafter at weekly intervals. At baseline, rats were randomly distributed into two groups: those that underwent subtotal nephrectomy and those that underwent a sham procedure without reduction of renal mass. Surgery was performed in deeply anesthetized (2% isoflurane in air) animals. Kidneys were accessed via a dorsolateral incision of the body wall of about 2 cm in length. The right kidney was removed after ligature of the renal peduncle, and subsequently the upper and lower pole of the left kidney were removed, followed by careful hemostasis. Approximately one third of the initial kidney mass remained (removed tissue was weighed to check this was achieved). In the sham-treated animals, both kidneys were exposed before closure of the wound. Three weeks after surgery, animals were allocated to each group in equal proportions with respect to systolic blood pressure and hematocrit values. For 5 weeks, animals were treated twice weekly with rhEPO (100 IU/kg), or once daily with […] (2.5 mg/kg or 5.0 mg/kg) or vehicle. In experiments using enalapril or a combination of BAY 85-3934 sodium and enalapril, study drugs were administered with drinking water. BAY 85-3934 sodium and enalapril were administered in drinking water at concentrations of 80 ppm and 30 ppm, respectively. This was equivalent to approximately 2 mg/kg/day for enalapril and 5 mg/kg/day for BAY 85-3934. Systolic blood pressure and heart rate were determined using the tail-cuff method (a semi-automatic, non-invasive blood pressure monitor; TSE Systems), with three repeated measurements per animal.
(§1) EPO was measured in plasma samples taken from rodents using a commercial ELISA kit (R&D Systems), according to the manufacturer’s instructions. Relative plasma EPO levels were given in picograms per milliliter. In cynomolgus monkeys, EPO was measured using a combination anti-human EPO ELISAs (R&D Systems and Roche Diagnostics), with human EPO as a standard. Values were given as units per liter. For determination of plasma prorenin from rats, a commercial ELISA (Oxford Biomedical Research) was used according to the manufacturer’s instructions. Hemoglobin in rodent blood samples was determined on a Cell-Dyn 3700 apparatus (Abbott Diagnostics). BAY 85-3934 plasma concentrations were determined after protein precipitation with acetonitrile/ammonium acetate using an internal standard, followed by separation using HPLC/mass spectrometry.
As well as anemia and inflammation, CKD is often accompanied by hypertension, upon which treatment with rhEPO may have an unfavorable impact. The effects of BAY 85-3934 were compared with rhEPO in the remnant kidney (subtotal nephrectomy) model in rats.

cynomolgus monkeys = assay: Comparison of BAY 85-3934 with rhEPO (single dose and 14-day repeat dose); assay type: in vivo, cynomolgus monkey
Method: Male and female cynomolgus monkeys (2.8–5.6 kg in body weight) were used, which were housed two per cage. Blood samples from conscious cynomolgus monkeys were taken by puncturing a superficial vein. In a 5-day, repeat-dose study of plasma EPO response, BAY 85-3934 was administered at doses of 0.5 mg/kg and 1.5 mg/kg at 0 h, 24 h, 48 h, 72 h, and 96 h. Blood samples were taken at 7 h, 31 h, 55 h, 79 h, 103 h, and 168 h. Erythropoietic parameters were also evaluated after a 2-week treatment period with s.c. administration of rhEPO (100 IU/kg twice weekly at days 1, 4, 8, and 11) and BAY 85-3934 (1.5 mg/kg) once daily.
as §1
In a further study, the efficacy of oral treatment with BAY 85-3934 was evaluated in comparison with rhEPO. Animals were administered a single dose of rhEPO (100 IU/kg) by s.c. injection or BAY 85-3934 (1.5 mg/kg, oral). After administration of rhEPO, plasma concentrations of rhEPO were more than 8-fold higher than the endogenous EPO levels induced by treatment with BAY 85-3934 (Fig. 3B). The area under the curve (AUC) of rhEPO was more than 6-fold higher than the AUC of endogenous EPO. […] Mean reticulocyte counts were 2-fold higher after treatment with rhEPO than after treatment with BAY 85-3934, but returned to baseline values 8 days after treatment cessation.

male Wistar rats [2] = assay: Comparison of oral BAY 85-3934 with rhEPO on erythropoiesis; assay type: in vivo, rat; conditions: BAY 85-3934 2.5 mg/kg once daily oral; rhEPO 25, 50, 100 IU/kg twice weekly s.c.; p<0.001 at day 30
Method: Male Wistar rats (240–340 g in body weight) were housed with five animals per cage for at least 1 week before experimentation. Blood samples from rats were collected under anesthesia (2% isoflurane in air) by puncturing the retro-orbital vein plexus with a glass capillary. In a repeat-dose, 26-day experiment, animals were administered vehicle or BAY 85-3934 at doses of 0.5 mg/kg, 1.25 mg/kg, 2.5 mg/kg, and 5 mg/kg. PCV was determined at baseline and at weekly intervals after centrifugation in a hematocrit capillary tube (Brand) for 10 min at full speed in a Haemofuge centrifuge (Heraeus). The number of reticulocytes in 5 µl blood was counted after staining with thiazol orange (Becton Dickinson) according to the manufacturer’s instructions by FACS analysis on a BD FACSCalibur system (Becton Dickinson). The efficacy of BAY 85-3934 (2.5 mg/kg, once-daily, oral) was also compared with that of rhEPO (25 IU/kg, 50 IU/kg, and 100 IU/kg, twice-weekly, s.c. injection). […] The efficacy of oral treatment with BAY 85-3934 was compared with that of standard rhEPO treatment in male Wistar rats.

[3] = drinking water, 5 weeks: BAY 85-3934 sodium 80 ppm, enalapril 30 ppm
[4] = single dose rhEPO 100 IU/kg s.c. vs BAY 85-3934 1.5 mg/kg oral

Compound	mean PCV (male Wistar rats [1]; [3])	mean systolic blood pressure compared with control (male Wistar rats [1]; [3])	mean reticulocyte counts relative to BAY 85-3934 treatment (cynomolgus monkeys; 14-day repeat dose)	time after treatment cessation at which reticulocyte counts returned to baseline (cynomolgus monkeys; 14-day repeat dose)	mean gains of hemoglobin and red blood cells, both treatments compared (cynomolgus monkeys; 14 days, rhEPO 100 IU/kg twice weekly s.c., BAY 85-3934 1.5 mg/kg once daily)	AUC of rhEPO relative to AUC of endogenous EPO (cynomolgus monkeys; [4])	plasma rhEPO concentration relative to endogenous EPO induced by BAY 85-3934 (cynomolgus monkeys; [4])	hematocrit compared with the control group (male Wistar rats [2])	systolic blood pressure compared with untreated controls (male Wistar rats [1]; 5 weeks, tail-cuff)	mean PCV (male Wistar rats [1]; BAY 85-3934 2.5 and 5 mg/kg once daily, rhEPO 100 IU/kg twice weekly)	cardiac hypertrophy (male Wistar rats [1]; data not shown)	plasma prorenin levels (male Wistar rats [1]; [3])
[Na+].[O-]c1c(-n2ccnn2)cnn1-c1cc(N2CCOCC2)ncn1 [BAY 85-3934 sodium]	increasing	significantly reduced	–	–	–	–	–	–	–	–	–	–
rhEPO: Human recombinant EPO (Ortho Biotech), s.c. injection	–	–	2 fold	8 days	almost completely congruent over time	more than 6 fold	more than 8 fold	significant increase	no difference	significantly increased	manifested	–
CCOC(=O)[C@H](CCc1ccccc1)N[C@@H](C)C(=O)N1CCC[C@H]1C(=O)O [enalapril, reference compound]	remained unchanged	significant reduction	–	–	–	–	–	–	–	–	–	reversion of plasma prorenin levels to normal values
